# According to patent US8716528B2, “Aryloxy amine compounds and their use as sodium channel modulators” (Howard Florey Institute, priority 2007, dated 2014):
# Where “and” joins values, the source holds several entries; their conditions need not be identical. Identical values can stand only once. Entries after “also recorded” stand apart in the source; their conditions may differ. Marks after values point to notes of the source that are not given here.
# What was measured:
# [1] = biological target: Sodium Channel Binding Site 2 in Rat Brain Membranes; settings: 3H-batrachotoxinin 5 nM, 37° C. 60 minutes, read-out: IC50 (inhibition of specific binding of 3H-batrachotoxinin)
# [2] = test system: Male Hooded Wistar rats, spinal cord injury (SCI); experiment: Reversible spinal cord injury model: BBB open-field locomotor score; format: in vivo, rat; settings: i.p. 3 h after injury and twice daily, 15 days; versus vehicle treated controls
# Description: (§1) Male Hooded Wistar rats were anesthetized (2% isoflurane/98% oxygen), and laminectomy performed at spinal level T12. An inflatable balloon catheter was inserted rostral, underneath the vertebra, to T10 and inflated for 5 minutes, causing reversible paraplegia (Feldblum, et al., 2000). […] Rats had almost complete functional recovery by 15 d. Compound 1 (15 nmol/g and 60 nmol/g), mexiletine (60 nmol/g) and vehicle (5 ml/kg) were administered i.p, at 3 h after the injury and twice daily thereafter, until killed. Behavioural tests were conducted every 3 days. At 15 d post-injury, rats were anesthetized and transcardially perfused, to fix the spinal cords. Sections were cut and processed to examine the size of the cyst and modulatory effects of treatments or control on lesion formation.
# BBB scale: Effects of Compound 1 and mexiletine treatment on the time course of functional recovery, following SCI, assessed with the BBB open-field locomotor score. […] Each rat acted as its own control, and results after SCI compared with pre-injury scores (0 h after SCI). Data are mean±SEM. ANOVA followed by Bonferroni post-test: [F(24,273)=10.57, P<0.0001], *P<0.05, **P<0.01, ***P<0.001 Compound 1 (60 nmol/g) versus the SCI+saline controls at the same time; †P<0.05 Compound 1 (15 nmol/g) or mexiletine (60 nmol/g) versus SCI+saline controls at the same time.
# [3] = test system: Male Sprague-Dawley rats, L5 nerve ligated and cut; experiment: Rat L5 nerve cut model of neuropathic pain, Von Frey filament withdrawal threshold (allodynia); format: in vivo; settings: for grams of force needed to withdraw left limb: left hind paw, nerve cut; for grams of force needed to withdraw left limb / grams of force needed to withdraw right limb: individual rats #17-#20; for effect on allodynia: left paw, 4 rats; for grams of force needed to withdraw right limb: right hind paw, nerve intact
# Description: The following method is based on the method published by Chaplan et al, 1994. Male Sprague-Dawley rats from one litter were weaned when 19 days old and acclimatized for the next two days in the Animal House where the experiment was to be carried out. From days 21 to 25, rats were tested using a set of Von Frey monofilaments to test the mechanical withdrawal threshold of the hindpaws. The monofilaments were applied in increasing force until the rat withdrew the hind paw being tested. […] Rats were anaesthetized with a halothane/oxygen (5:95) gas mixture and a dorsal midline incision was made on the rat's lower back to expose the left lumbar region either side of the hip. Bone was clipped away to expose the L4 and L5 nerves distal to their emergence from the intervertebral foramina. The L5 nerve was then isolated using a glass hook, ligated and cut on the peripheral side of the ligation. The incision was then closed with suture threads and the anaesthetic gas discontinued. The next day rats underwent testing with the graded Von Frey filaments to the hind paws to determine if allodynia was present in the left paw as compared to the right hind paw. Testing was repeated on these rats until they were 28 days old. […] Rats were then tested with graded Von Frey filaments at 45 minutes and 90 minutes after injection in order to determine if allodynia had been blocked.
# [4] = test system: Male Hooded Wistar rats, spinal cord injury (SCI); experiment: Reversible spinal cord injury model: percentage of white and gray matter spared at the epicentre (H & E, Luxol Fast blue, cresyl violet); format: in vivo, rat
# Description: as §1
# (§2) Volume of damage: Effects of treatment were measured first from H & E stained sections. […] Data are mean±SEM of measurements from n=4 rats per treatment group. Secondly, the sparing of spinal cord tissue by Compound 1 and mexiletine treatment was assessed by more detailed histological staining techniques.
# [5] = test system: Male Hooded Wistar rats, spinal cord injury (SCI); experiment: Reversible spinal cord injury model: ledged beam task; format: in vivo, rat; settings: for use of the support ledge, ledged beam task: after SCI, versus saline-treated controls
# Description: as §1
# Ledged beam: Effects of Compound 1 and mexiletine, and SCI+saline controls on recovery of function following spinal cord compression injury as assessed by the number of steps using the support ledge on the ledged beam task. The results are depicted in FIG. 5. Sham-SCI rats walked the length of the ledged beam with approximately 10% of steps made on the supporting ledge. […] Data is expressed as ledge use/errors made as a percentage of total steps taken with both hindlimbs after SCI. Each rat acted as its own control, and results compared with pre-injury scores (0 h after SCI). ANOVA followed by Bonferroni post-test: [F(24,273)=5.12, P<0.0001], *P<0.05, **P<0.01, ***P<0.001 Compound 1 (60 nmol/g) versus the SCI+saline controls at the same time; †P<0.05 Compound 1 (15 nmol/g) versus SCI+saline controls at the same time. […] Data are mean±SEM. n=6-11 rats in each group.
# [6] = test system: Male Hooded Wistar rats, spinal cord injury (SCI); experiment: Reversible spinal cord injury model: horizontal ladder test; format: in vivo, rat; settings: versus SCI+saline controls at the same time
# Description: as §1
# Ladder test: In the horizontal ladder test, rats are placed onto a beam which is randomly missing rungs, this prevents rats from adapting and compensating for any deficits following SCI. […] The results are depicted in FIG. 4. […] Data is expressed as the percentage of foot misplacements made of the total number of steps taken, using a combined score for both hindlimbs. […] Each rat acted as its own control, and results compared with pre-injury scores (0 h after SCI). […]
# [7] = test system: Male Hooded Wistar rats, spinal cord injury (SCI); experiment: Reversible spinal cord injury model: neuronal cell body counts by NeuN immunostaining; format: in vivo, rat; settings: for loss of white matter and gray matter (rostro-caudal serial sections, neuronal cell body counts): after SCI, versus saline treatment
# Description: as §1, §2
# [8] = test system: Male Hooded Wistar rats, spinal cord injury (SCI); experiment: Reversible spinal cord injury model: volume of damage from H & E stained sections; format: in vivo, rat; settings: equivalent mole dose, compared to SCI+saline, n=4
# Description: as §1, §2
# [9] = +0.5 mm from epicentre, 60 nmol/g
# [10] = +1 mm from epicentre, 60 nmol/g
# [11] = +1.5 mm from epicentre, 60 nmol/g
# [12] = +2 mm from epicentre, 60 nmol/g
# [13] = +2.5 mm from epicentre, 60 nmol/g
# [14] = −0.5 mm from epicentre, 60 nmol/g
# [15] = −1 mm from epicentre, 60 nmol/g
# [16] = −1.5 mm from epicentre, 60 nmol/g
# [17] = −2 mm from epicentre, 60 nmol/g
# [18] = −2.5 mm from epicentre, 60 nmol/g
compound,measurement,setting,value
CC(C)c1cccc(C(C)C)c1OCCCNCc1cc(C(C)(C)C)c(O)c(C(C)(C)C)c1 [Compound 4],IC50,[1],90 nM
CC(C)(C)c1cc(CNCCCOc2c(Cl)cccc2Cl)cc(C(C)(C)C)c1O [Compound 2],IC50,[1],105 nM
COc1cccc(OC)c1OCCCNCc1cc(C(C)(C)C)c(O)c(C(C)(C)C)c1 [Compound 3],IC50,[1],107 nM
Cc1cccc(C)c1OCC(C)NCc1cc(C(C)(C)C)c(O)c(C(C)(C)C)c1 (stereo not shown) [Compound 1],"rate of functional recovery following SCI, BBB open-field locomotor score",[2],significantly increased the rate of recovery
same,grams of force needed to withdraw left limb,[3]; 45 min post i.p. 70 nmol/g,11.44 g and 17.8 g (3×)
same,grams of force needed to withdraw left limb,[3]; 90 min post i.p. 70 nmol/g,3.7 g and 10.9 g and 17.8 g (2×)
same,effect on allodynia,[3]; 45 minutes after i.p. 70 nmol/g,allodynia had been completely eliminated in 3 of the rats
same,effect on allodynia,[3]; 90 minutes after i.p. 70 nmol/g,allodynia had still been eliminated in 2 rats
same,grams of force needed to withdraw right limb,[3]; 45 min post i.p. 70 nmol/g,17.8 g
same,grams of force needed to withdraw right limb,[3]; 90 min post i.p. 70 nmol/g,17.8 g
same,generalized anaesthesia (response of right hindpaw to filaments),"[3]; right hindpaw, 45 or 90 minutes after injection",did not cause a generalized anaesthesia
same,"GRAY MATTER spared, % MEAN",[4]; 15 nmol/g,80* %
same,"TOTAL TISSUE spared, % MEAN",[4]; 15 nmol/g,74.3* %
same,"WHITE MATTER spared, % MEAN",[4]; 15 nmol/g,63.6* %
same,"GRAY MATTER spared, % MEAN",[4]; 60 nmol/g,88.9* %
same,"TOTAL TISSUE spared, % MEAN",[4]; 60 nmol/g,83.9* %
same,"WHITE MATTER spared, % MEAN",[4]; 60 nmol/g,81.1* %
same,"use of the support ledge, ledged beam task",[5],significantly reduced
same,"number of hind-limb foot misplacements, horizontal ladder test",[6],decreased the number of hind-limb foot misplacements
same,"No. of motor neurons Per sq mm, Mean","[7]; 0.0 mm (epicentre), 15 nmol/g",9* Per sq mm
same,"No. of motor neurons Per sq mm, Mean","[7]; 0.0 mm (epicentre), 60 nmol/g",15* Per sq mm
same,"No. of motor neurons Per sq mm, Mean","[7]; +0.5 mm from epicentre, 15 nmol/g",10* Per sq mm
same,"No. of motor neurons Per sq mm, Mean",[7]; [9],16* Per sq mm
same,"No. of motor neurons Per sq mm, Mean","[7]; +1 mm from epicentre, 15 nmol/g",14* Per sq mm
same,"No. of motor neurons Per sq mm, Mean",[7]; [10],22* Per sq mm
same,"No. of motor neurons Per sq mm, Mean","[7]; +1.5 mm from epicentre, 15 nmol/g",25* Per sq mm
same,"No. of motor neurons Per sq mm, Mean",[7]; [11],29* Per sq mm
same,"No. of motor neurons Per sq mm, Mean","[7]; +2 mm from epicentre, 15 nmol/g",28 Per sq mm
same,"No. of motor neurons Per sq mm, Mean",[7]; [12],28 Per sq mm
same,"No. of motor neurons Per sq mm, Mean","[7]; +2.5 mm from epicentre, 15 nmol/g",29 Per sq mm
same,"No. of motor neurons Per sq mm, Mean",[7]; [13],30 Per sq mm
same,"loss of white matter and gray matter (rostro-caudal serial sections, neuronal cell body counts)",[7],reduced loss of both white matter and gray matter; also recorded: more effective than Mexiletine
same,"No. of motor neurons Per sq mm, Mean","[7]; −0.5 mm from epicentre, 15 nmol/g",11* Per sq mm
same,"No. of motor neurons Per sq mm, Mean",[7]; [14],17* Per sq mm
same,"No. of motor neurons Per sq mm, Mean","[7]; −1 mm from epicentre, 15 nmol/g",18* Per sq mm
same,"No. of motor neurons Per sq mm, Mean",[7]; [15],23* Per sq mm
same,"No. of motor neurons Per sq mm, Mean","[7]; −1.5 mm from epicentre, 15 nmol/g",26 Per sq mm
same,"No. of motor neurons Per sq mm, Mean",[7]; [16],26 Per sq mm
same,"No. of motor neurons Per sq mm, Mean","[7]; −2 mm from epicentre, 15 nmol/g",29 Per sq mm
same,"No. of motor neurons Per sq mm, Mean",[7]; [17],30 Per sq mm
same,"No. of motor neurons Per sq mm, Mean","[7]; −2.5 mm from epicentre, 15 nmol/g",27 Per sq mm
same,"No. of motor neurons Per sq mm, Mean",[7]; [18],30 Per sq mm
same,volume of damage (H & E stained sections),[8],reduced damage compared to SCI+saline
same,IC50,[1],134 nM
CC(C)(C)c1cc(CNCCCOc2ccncc2)cc(C(C)(C)C)c1O [Compound 7],IC50,[1],870 nM
CC(C)(C)c1cc(CNCCCOc2ccccc2)cc(C(C)(C)C)c1O [Compound 6],IC50,[1],236 nM
Cc1cccc(C)c1OCCCNCc1cc(C(C)(C)C)c(O)c(C(C)(C)C)c1 [Compound 8],IC50,[1],179 nM
"Cc1cccc(C)c1OCC(C)N (stereo not shown) [Mexiletine, mexiletine, reference compound]","rate of functional recovery following SCI, BBB open-field locomotor score",[2],significantly increased the rate of recovery
same,"GRAY MATTER spared, % MEAN",[4]; 60 nmol/g,77.9* %
same,"TOTAL TISSUE spared, % MEAN",[4]; 60 nmol/g,70.5* %
same,"WHITE MATTER spared, % MEAN",[4]; 60 nmol/g,66.3* %
same,"ledge use, statistical difference from SCI+saline","[5]; 60 nmol/g, Bonferroni post-test",no significant difference from SCI+saline at any time
same,"use of the support ledge, ledged beam task",[5],significantly reduced
same,"number of hind-limb foot misplacements, horizontal ladder test",[6],decreased the number of hind-limb foot misplacements
same,"No. of motor neurons Per sq mm, Mean","[7]; 0.0 mm (epicentre), 60 nmol/g",7* Per sq mm
same,"No. of motor neurons Per sq mm, Mean",[7]; [9],10* Per sq mm
same,"No. of motor neurons Per sq mm, Mean",[7]; [10],17* Per sq mm
same,"No. of motor neurons Per sq mm, Mean",[7]; [11],24* Per sq mm
same,"No. of motor neurons Per sq mm, Mean",[7]; [12],30 Per sq mm
same,"No. of motor neurons Per sq mm, Mean",[7]; [13],27 Per sq mm
same,"loss of white matter and gray matter (rostro-caudal serial sections, neuronal cell body counts)",[7],reduced loss of both white matter and gray matter
same,"No. of motor neurons Per sq mm, Mean",[7]; [14],11* Per sq mm
same,"No. of motor neurons Per sq mm, Mean",[7]; [15],17* Per sq mm
same,"No. of motor neurons Per sq mm, Mean",[7]; [16],26 Per sq mm
same,"No. of motor neurons Per sq mm, Mean",[7]; [17],33 Per sq mm
same,"No. of motor neurons Per sq mm, Mean",[7]; [18],31 Per sq mm
same,volume of damage (H & E stained sections),[8],reduced damage compared to SCI+saline
same,IC50,[1],11000 nM
"Cc1cccc(C)c1OCCCNCc1ccc(N2N=CC(C)C2=O)cc1 (stereo not shown) [Comparative A, reference compound]",IC50,[1],11000 nM
CC(C)c1cncc(C(C)C)c1OCCCNCc1cc(C(C)(C)C)c(O)c(C(C)(C)C)c1 [Compound 5],IC50,[1],380 nM
